Data on four compounds can be found in ChEMBL document CHEMBL1158317, “Porrigenins A and B, novel cytotoxic and antiproliferative sapogenins isolated from Allium porrum” (J Nat Prod, 1997).

Type in all cases: functional, cell-based
Test [1] has as its system IGR-1. The experiment in a line: Antiproliferative activity against human IGR-1 cells after 48 hrs by MTT assay. The note with it: IGR-1, 48 h.
Test [2] relates to IGR-1. The experiment in a line: Antiproliferative activity against human IGR-1 cells after 72 hrs by MTT assay. The conditions noted are these: IGR-1, 72 h.
For test [3], the system named is J774. The test is described as follows: Cytotoxicity against mouse J774 cells after 24 hrs by MTT assay. The conditions noted are these: J774, 24 h.
Test [4] has as its system J774. The experiment in a line: Antiproliferative activity against mouse J774 cells after 48 hrs by MTT assay. The conditions noted are these: J774, 48 h.
For test [5], the system named is J774. The experiment in a line: Antiproliferative activity against mouse J774 cells after 72 hrs by MTT assay. The conditions noted are these: J774, 72 h.
In test [6] the test system is WEHI-164. The experiment in a line: Cytotoxicity against mouse WEHI164 cells after 24 hrs by MTT assay. The note with it: WEHI-164, 24 h.
The subject of test [7] is WEHI-164. The test is described as follows: Antiproliferative activity against mouse WEHI164 cells after 48 hrs by MTT assay. The note with it: WEHI-164, 48 h.
In test [8] the test system is WEHI-164. The test is described as follows: Antiproliferative activity against mouse WEHI164 cells after 72 hrs by MTT assay. The note with it: WEHI-164, 72 h.
For test [9], the system named is P388. The test is described as follows: Cytotoxicity against mouse P388 cells after 24 hrs by MTT assay. The conditions noted are these: P388, 24 h.
The subject of test [10] is P388. The experiment in a line: Antiproliferative activity against mouse P388 cells after 48 hrs by MTT assay. The note with it: P388, 48 h.
The subject of test [11] is P388. The test is described as follows: Antiproliferative activity against mouse P388 cells after 72 hrs by MTT assay. The conditions noted are these: P388, 72 h.
Test [12] has as its system IGR-1. The test is described as follows: Cytotoxicity against human IGR-1 cells after 24 hrs by MTT assay. The note with it: IGR-1, 24 h.

≈ marks a conversion by molar mass, not a printed value.

For the compound `C[C@@H]1CC[C@@]2(OC1)O[C@H]1C[C@H]3[C@@H]4C[C@@H](O)[C@H]5C[C@@H](O)[C@H](O)C[C@]5(C)[C@H]4CC[C@]3(C)[C@H]1[C@@H]2C` [AGIGENIN], the IC50 in the test on IGR-1 [1] turned out to be 627 µg/mL (≈ 1400 µM); in the test on IGR-1 [2], 264 µg/mL (≈ 588 µM); in the test with J774 [3], 896 µg/mL (≈ 2000 µM); in the test with J774 [4], 655 µg/mL (≈ 1460 µM); in the test on J774 [5] it was 321 µg/mL (≈ 715 µM); in the test on WEHI-164 [6], 836 µg/mL (≈ 1860 µM). Moreover, the IC50 amounted to 548 µg/mL (≈ 1220 µM) with WEHI-164 [7]; 210 µg/mL (≈ 468 µM) in the test with WEHI-164 [8]; 609 µg/mL (≈ 1360 µM) in the test on P388 [9]; 471 µg/mL (≈ 1050 µM) in the test on P388 [10]; 354 µg/mL (≈ 789 µM) in the test with P388 [11].

For `Sc1ncnc2nc[nH]c12` [MERCAPTOPURINE ANHYDROUS], the IC50 was 51.7 µg/mL (≈ 340 µM) in the test with IGR-1 [12]; 12.3 µg/mL (≈ 80.8 µM) in the test on IGR-1 [1]; 1.1 µg/mL (≈ 7.23 µM) in the test on IGR-1 [2]; 61 µg/mL (≈ 401 µM) with J774 [3]; 3.6 µg/mL (≈ 23.7 µM) in the test on J774 [4]; 0.5 µg/mL (≈ 3.29 µM) with J774 [5]. For the same compound, the IC50 in the test with WEHI-164 [6] amounted to 83 µg/mL (≈ 545 µM); with WEHI-164 [7] it was 42 µg/mL (≈ 276 µM); in the test on WEHI-164 [8], 2.7 µg/mL (≈ 17.7 µM); in the test with P388 [9] it was 37 µg/mL (≈ 243 µM); in the test on P388 [10] it was 2.1 µg/mL (≈ 13.8 µM); with P388 [11], 0.3 µg/mL (≈ 1.97 µM).

`C[C@@H]1CC[C@@]2(OC1)O[C@H]1C[C@H]3[C@@H]4C[C@@H](O)[C@H]5C[C@@H](O)[C@@H](O)C[C@]5(C)[C@H]4CC[C@]3(C)[C@H]1[C@@H]2C` [PORRIGENIN A]: the IC50 is 942 µg/mL (≈ 2100 µM) in the test on IGR-1 [12]; 471 µg/mL (≈ 1050 µM) in the test on IGR-1 [1]; 184 µg/mL (≈ 410 µM) in the test with IGR-1 [2]; 754 µg/mL (≈ 1680 µM) in the test with J774 [3]; 515 µg/mL (≈ 1150 µM) in the test on J774 [4]; 270 µg/mL (≈ 602 µM) with J774 [5]. Moreover, the half-inhibitory concentration (IC50) with WEHI-164 [7] came out at 277 µg/mL (≈ 617 µM); with WEHI-164 [8], 110 µg/mL (≈ 245 µM); with P388 [9], 617 µg/mL (≈ 1380 µM); with P388 [10], 270 µg/mL (≈ 602 µM); in the test on P388 [11], 115 µg/mL (≈ 256 µM).

For the compound `C[C@@H]1CC[C@@]2(OC1)O[C@H]1C[C@H]3[C@@H]4C[C@@H](O)[C@H]5C[C@@H](O)C(=O)C[C@]5(C)[C@H]4CC[C@]3(C)[C@H]1[C@@H]2C` [PORRIGENIN B], the IC50 was found to be 823 µg/mL (≈ 1840 µM) in the test on IGR-1 [12]; 330 µg/mL (≈ 739 µM) in the test with IGR-1 [1]; 45 µg/mL (≈ 101 µM) in the test on IGR-1 [2]; 552 µg/mL (≈ 1240 µM) in the test with J774 [3]; 111 µg/mL (≈ 249 µM) in the test on J774 [4]; 51 µg/mL (≈ 114 µM) in the test on J774 [5]. The IC50 with WEHI-164 [6] stood at 655 µg/mL (≈ 1470 µM); with WEHI-164 [7], 344 µg/mL (≈ 770 µM); in the test with WEHI-164 [8], 92 µg/mL (≈ 206 µM); in the test on P388 [9], 837 µg/mL (≈ 1870 µM); with P388 [10] it was 185 µg/mL (≈ 414 µM); with P388 [11] it was 74 µg/mL (≈ 166 µM).
